Measured values published in patent US7737155B2, “Nitrogen-containing heterocyclic compounds and methods of use thereof” (Schering Corporation, priority 2005, dated 2010).

molecular target: recombinant human nicotinic acid receptor (NAR) (Homo sapiens, UniProt Q8TDS4); assay: Nicotinic Acid Receptor Assay: inhibition of forskolin-stimulated cAMP accumulation in CHO cells (MesoScale Discovery cAMP kit); format: cell-based; details: CHO cells expressing recombinant human NAR; forskolin-stimulated cAMP; read-out: NA EC50 camp
Method: The nicotinic acid receptor agonist activity of the inventive compounds was determined by following the inhibition of forskolin-stimulated cAMP accumulation in cells using the MesoScale Discovery cAMP detection kit following the manufacture's protocol. Briefly, Chinese Hamster Ovary (CHO) cells expressing recombinant human nicotinic acid receptor (NAR) were harvested enzymatically, washed 1× in phosphate buffered saline (PBS) and resuspended in PBS containing 0.5 mM IBMX at 3×10^6 cells/mL. Ten μL of cell suspension was added to each well of a 384-well plate which contained 10 μL of test compounds. Test compounds were diluted with PBS containing 6 μM of forskolin. Plates were incubated for 30 minutes at room temperature after the addition of cells. Lysis buffer containing cAMP-Tag was added to each well (10 μL/well) as per the manufacturer's protocol. Plates were then incubated from 45 minutes to overnight. Prior to reading, 10 μL of read buffer was added to each well, and the plate was read in a Sector 6000 plate imager. The signal was converted to cAMP concentration using a standard curve run on each plate.

Chain of recombinant human nicotinic acid receptor (NAR) (Q8TDS4 whole entry): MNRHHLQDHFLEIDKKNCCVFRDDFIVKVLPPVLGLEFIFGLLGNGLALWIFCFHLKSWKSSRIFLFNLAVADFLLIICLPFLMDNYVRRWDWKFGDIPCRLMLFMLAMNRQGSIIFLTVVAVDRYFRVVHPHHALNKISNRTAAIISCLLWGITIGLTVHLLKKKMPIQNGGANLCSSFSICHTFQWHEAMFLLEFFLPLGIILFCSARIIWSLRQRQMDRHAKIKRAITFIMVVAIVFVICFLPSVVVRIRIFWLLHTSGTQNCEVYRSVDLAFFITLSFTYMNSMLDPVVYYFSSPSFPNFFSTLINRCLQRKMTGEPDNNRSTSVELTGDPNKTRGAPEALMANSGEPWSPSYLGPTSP

Structure (SMILES)	EC50
CCc1cc(=O)oc2nc(OCc3ncoc3-c3ccccc3)[nH]c(=O)c12 [Compound 540]	100 to 1000 nM
CCc1cc(=O)oc2nc(OCc3cc(C)c(OC)c(C)n3)[nH]c(=O)c12 [Compound 511]	> 1000 nM
CCc1cc(=O)oc2nc(OCc3cc(-c4ccccc4)oc3C)[nH]c(=O)c12 [Compound 542]	> 1000 nM
CCc1cc(=O)oc2nc(OCCOc3cccc(C)c3)[nH]c(=O)c12 [Compound 598]	100 to 1000 nM
CCc1cc(=O)oc2nc(OCC#CCCOC)[nH]c(=O)c12 [Compound 664]	100 to 1000 nM
CCc1cc(=O)oc2nc(OCCOC(C)C)[nH]c(=O)c12 [Compound 595]	100 to 1000 nM
Cc1cc(=O)oc2nc(OCc3csc4ccccc34)[nH]c(=O)c12 [Compound 690]	> 1000 nM
CCc1c(C#Cc2ccccc2)c(=O)oc2[nH]c(=O)[nH]c(=O)c12 [Compound 219]	> 1000 nM
CCc1cc(=O)oc2nc(OCc3ccc4ccccc4n3)[nH]c(=O)c12 [Compound 527]	100 to 1000 nM
Cc1ccccc1-c1cc(CCCc2cc(=O)oc3[nH]c(=O)[nH]c(=O)c23)on1 [Compound 243]	100 to 1000 nM
CCc1cc(=O)oc2nc(OCc3ccccc3-c3cccc(C)c3)[nH]c(=O)c12 [Compound 550]	> 1000 nM
CCc1cc(=O)oc2nc(OCc3ccccc3-c3cccc(C(N)=O)c3)[nH]c(=O)c12 [Compound 585]	100 to 1000 nM
CCCCc1cc(=O)oc2nc(OCc3ccccn3)[nH]c(=O)c12 [Compound 682]	> 1000 nM
CCc1cc(=O)oc2nc(OCc3ccc(-c4ccccc4)cc3F)[nH]c(=O)c12 [Compound 518]	100 to 1000 nM
CCc1cc(=O)oc2nc(O[C@H](C)c3ccc4ccccc4c3)[nH]c(=O)c12 [Compound 500]	100 to 1000 nM
O=c1[nH]c(=O)c2c(CCCc3cc(-c4cccc(C(F)(F)F)c4)no3)cc(=O)oc2[nH]1 [Compound 249]	100 to 1000 nM
CCCCc1c(-c2ccc(C(F)(F)F)cc2)c(=O)oc2[nH]c(=O)[nH]c(=O)c12 [Compound 708]	100 to 1000 nM
CCc1cc(=O)oc2nc(OCC[Si](C)(C)C)[nH]c(=O)c12 [Compound 637]	100 to 1000 nM
CCc1cc(=O)oc2nc(OCC#Cc3cccc(Cl)c3)[nH]c(=O)c12 [Compound 626]	0.001 to 100 nM
CCc1cc(=O)oc2nc(OC(C)c3ccc(-c4ccccc4)cc3F)[nH]c(=O)c12 (stereo not drawn) [Compound 569]	0.001 to 100 nM

Next, values leading:

EC50	Structure (SMILES)
100 to 1000 nM	CC1CC(c2cc(=O)oc3[nH]c(=O)[nH]c(=O)c23)C1 (stereo not drawn) [Compound 296]
> 1000 nM	O=C(OCc1ccccc1)N1CCC(Cc2cc(=O)oc3[nH]c(=O)[nH]c(=O)c23)C1 (stereo not drawn) [Compound 233]
100 to 1000 nM	O=c1[nH]c(=O)c2c(CCC(C3CC3)C3CC3)cc(=O)oc2[nH]1 [Compound 293]
100 to 1000 nM	CCc1cc(=O)oc2nc(OCCO)[nH]c(=O)c12 [Compound 643]
0.001 to 100 nM	O=c1[nH]c(=O)c2c(CCc3cccs3)cc(=O)oc2[nH]1 [Compound 229]
> 1000 nM	O=c1[nH]c(=O)c2c(CCCOC3CCCCC3)cc(=O)oc2[nH]1 [Compound 287]
> 1000 nM	CCOC(=O)CCc1cc(=O)oc2[nH]c(=O)[nH]c(=O)c12 [Compound 222]
> 1000 nM	O=c1[nH]c(=O)c2c(CC3C[C@@H]4CC[C@H]3C4)cc(=O)oc2[nH]1 (stereo partly drawn) [Compound 201]
> 1000 nM	O=C(NCCCc1cc(=O)oc2[nH]c(=O)[nH]c(=O)c12)OCc1ccccc1 [Compound 228]
100 to 1000 nM	O=c1[nH]c(=O)c2c(CCCOCC3CC3)cc(=O)oc2[nH]1 [Compound 273]
0.001 to 100 nM	CCCCc1cc(=O)oc2nc(OCC#CC(C)O)[nH]c(=O)c12 (stereo not drawn) [Compound 680]
0.001 to 100 nM	CCCCCc1cc(=O)oc2nc(ONC(=O)OCC)[nH]c(=O)c12 [Compound 695]
100 to 1000 nM	O=c1[nH]c(=O)c2c(CC3CC3)cc(=O)oc2[nH]1 [Compound 206]
> 1000 nM	O=c1[nH]c(=O)c2c(CCC#Cc3ccccc3)cc(=O)oc2[nH]1 [Compound 220]
0.001 to 100 nM	CC(C)CCc1cc(=O)oc2[nH]c(=O)n(C3CCC3)c(=O)c12 [Compound 245]
0.001 to 100 nM	CCCCc1cc(=O)oc2nc(OCC#CC(O)CC)[nH]c(=O)c12 (stereo not drawn) [Compound 679]
100 to 1000 nM	CC(C)(C)CCCc1cc(=O)oc2[nH]c(=O)n(C3CCC3)c(=O)c12 [Compound 284]
0.001 to 100 nM	CCCOCCCc1cc(=O)oc2[nH]c(=O)[nH]c(=O)c12 [Compound 270]
> 1000 nM	CC/C=C\CCc1cc(=O)oc2[nH]c(=O)n(CC3CC3)c(=O)c12 [Compound 254]
> 1000 nM	CCOC(=O)NOc1nc2oc(=O)cc(CCC(C)C)c2c(=O)[nH]1 [Compound 694]
> 1000 nM	CCOC(=O)Cn1cc(CCCc2cc(=O)oc3[nH]c(=O)[nH]c(=O)c23)nn1 [Compound 250]
> 1000 nM	CCc1cc(=O)oc2nc(OCCN3CCCCC3)[nH]c(=O)c12 [Compound 578]

same assay, conditions: NA EC50 camp (nM), CHO cells expressing recombinant human NAR; forskolin-stimulated cAMP

Structure (SMILES)	EC50
CCc1noc(CC)c1COc1nc2oc(=O)cc(CC)c2c(=O)[nH]1 [Compound 667]	100 to 1000 nM
CCc1cc(=O)oc2nc(OCC#CC3CCCCC3)[nH]c(=O)c12 [Compound 638]	100 to 1000 nM
C#CCOc1nc2oc(=O)cc(CC)c2c(=O)[nH]1 [Compound 555]	100 to 1000 nM

same assay, conditions: NA EC50 camp, inhibition of forskolin-stimulated cAMP accumulation, CHO cells expressing recombinant human NAR

Structure (SMILES)	EC50
CCCCc1cc(=O)oc2nc(C(F)F)[nH]c(=O)c12 [Compound 750]	1890 nM
CCCCCc1cc(=O)oc2nc(C(F)F)[nH]c(=O)c12 [Compound 743]	212 nM

same assay, conditions: inhibition of forskolin-stimulated cAMP accumulation, CHO cells expressing recombinant human NAR; read-out: NA EC50 camp

Structure (SMILES)	EC50
CCc1cc(=O)oc2nc(OCC#CC(C)OC)[nH]c(=O)c12 (stereo not drawn) [Compound 723]	296 nM
CCC#CC(C)Oc1nc2oc(=O)cc(CC)c2c(=O)[nH]1 (stereo not drawn) [Compound 730]	156 nM
Cc1cc(=O)oc2nc(CF)[nH]c(=O)c12 [Compound 810]	> 10000 nM
CCc1cc(=O)oc2nc(OCC#CCCOC)[nH]c(=O)c12 [Compound 726]	219 nM

Now from value to compound:

EC50	Structure (SMILES)
88 nM	O=c1nc(OCF)c2c(CCCC3CC3)cc(=O)oc2[nH]1 [Compound 789]
> 10000 nM	CCCCc1cc(=O)oc2c1c(=O)[nH]c(=O)n2OCc1ccccc1 [Compound 798]
304 nM	CCCc1cc(=O)oc2[nH]c(=O)nc(OCF)c12 [Compound 832]
111 nM	O=c1cc(CCC2CC2)c2c(=O)[nH]c(OCC#CC3CC3)nc2o1 [Compound 722]
256 nM	CCCCc1cc(=O)oc2[nH]c(=O)n(O)c(=O)c12 [Compound 806]
74.3 nM	O=c1[nH]c(=O)c2c(CC3CCCCC3)cc(=O)oc2[nH]1 [Compound 103]
187 nM	CCCCc1cc(=O)oc2nc(CF)[nH]c(=O)c12 [Compound 809]
32.9 nM	CCCCc1cc(=O)oc2nc(OCC#CC(O)CC)[nH]c(=O)c12 (stereo not drawn) [Compound 736]
9 nM	CCc1cc(=O)oc2[nH]c(=O)n(C3CCC3)c(=O)c12 [Compound 35]
112 nM	O=c1nc(OCC(F)F)c2c(CCC3CCC3)cc(=O)oc2[nH]1 [Compound 830]
48.5 nM	COn1c(=O)[nH]c(=O)c2c(CCC3CCCC3)cc(=O)oc21 [Compound 773]
19 nM	COn1c(=O)[nH]c2oc(=O)cc(CCC3CCC3)c2c1=O [Compound 769]
511 nM	CCCCCCc1cc(=O)oc2[nH]c(=O)nc(OCF)c12 [Compound 833]
38.5 nM	CCCCc1cc(=O)oc2[nH]c(=O)nc(OCF)c12 [Compound 788]
2850 nM	CCCCc1cc(=O)oc2[nH]c(=O)n(OCC)c(=O)c12 [Compound 779]
